Source: PubChem BioAssay AID1259407 (Chemical Carcinogenesis Research Information System (CCRIS), 2018)
Active and inactive are the calls of the source. How the calls were made is not given here.

Test system: CCRIS mutagenicity, Ames/micronucleus/aberration tests
Experiment: CCRIS mutagenicity studies
[1] = Test System: AMES SALMONELLA TYPHIMURIUM, Strain/Indicator: TA100, Metabolic Activation: NONE, Method: PREINCUBATION
[2] = Test System: AMES SALMONELLA TYPHIMURIUM, Strain/Indicator: TA100, Metabolic Activation: NONE, Method: STANDARD PLATE
[3] = Test System: AMES SALMONELLA TYPHIMURIUM, Strain/Indicator: TA1535, Metabolic Activation: NONE, Method: PREINCUBATION
[4] = Test System: AMES SALMONELLA TYPHIMURIUM, Strain/Indicator: TA1537, Metabolic Activation: NONE, Method: PREINCUBATION

Measured: mutagenic call

OCc1ccccc1
inactive: End Point: IN VIVO MICRONUCLEUS, Test System: BONE MARROW POLYCHROMATIC ERYTHROCYTES, Species: MOUSE, Strain/Sex: DDY/MALE, Route: IP inactive; negative | Test System: AMES SALMONELLA TYPHIMURIUM, Strain/Indicator: TA97, Metabolic Activation: NONE, Method: PREINCUBATION inactive; negative | Test System: AMES SALMONELLA TYPHIMURIUM, Strain/Indicator: TA97, Metabolic Activation: RAT, LIVER, S-9, AROCLOR 1254, Method: PREINCUBATION inactive; negative | Test System: AMES SALMONELLA TYPHIMURIUM, Strain/Indicator: TA98, Metabolic Activation: HAMSTER, LIVER, S-9, AROCLOR 1254, Method: PREINCUBATION inactive; negative | Test System: AMES SALMONELLA TYPHIMURIUM, Strain/Indicator: TA98, Metabolic Activation: NONE, Method: PREINCUBATION inactive; negative | Test System: AMES SALMONELLA TYPHIMURIUM, Strain/Indicator: TA98, Metabolic Activation: RAT, LIVER, S-9, AROCLOR 1254, Method: PREINCUBATION inactive; negative | Test System: AMES SALMONELLA TYPHIMURIUM, Strain/Indicator: TA100, Metabolic Activation: HAMSTER, LIVER, S-9, AROCLOR 1254, Method: PREINCUBATION inactive; negative | [1] inactive; negative | [2] inactive; negative | Test System: AMES SALMONELLA TYPHIMURIUM, Strain/Indicator: TA100, Metabolic Activation: RAT, LIVER, S-9, AROCLOR 1254, Method: PREINCUBATION inactive; negative | Test System: AMES SALMONELLA TYPHIMURIUM, Strain/Indicator: TA102, Metabolic Activation: NONE, Method: PREINCUBATION inactive; negative | Test System: AMES SALMONELLA TYPHIMURIUM, Strain/Indicator: TA102, Metabolic Activation: RAT, LIVER, S-9, AROCLOR 1254, Method: PREINCUBATION inactive; negative | Test System: AMES SALMONELLA TYPHIMURIUM, Strain/Indicator: TA1535, Metabolic Activation: HAMSTER, LIVER, S-9, AROCLOR 1254, Method: PREINCUBATION inactive; negative | [3] inactive; negative | Test System: AMES SALMONELLA TYPHIMURIUM, Strain/Indicator: TA1535, Metabolic Activation: RAT, LIVER, S-9, AROCLOR 1254, Method: PREINCUBATION inactive; negative | Test System: AMES SALMONELLA TYPHIMURIUM, Strain/Indicator: TA1537, Metabolic Activation: HAMSTER, LIVER, S-9, AROCLOR 1254, Method: PREINCUBATION inactive; negative | [4] inactive; negative | Test System: AMES SALMONELLA TYPHIMURIUM, Strain/Indicator: TA1537, Metabolic Activation: RAT, LIVER, S-9, AROCLOR 1254, Method: PREINCUBATION inactive; negative | Test System: Ames Salmonella typhimurium, Strain/Indicator: TA98, Metabolic Activation: None, Method: Direct plate incorporation inactive; negative | Test System: Ames Salmonella typhimurium, Strain/Indicator: TA98, Metabolic Activation: Rat, liver, S-9, Aroclor 1254, Method: Direct plate incorporation inactive; negative | Test System: Ames Salmonella typhimurium, Strain/Indicator: TA100, Metabolic Activation: None, Method: Direct plate incorporation inactive; negative | Test System: Ames Salmonella typhimurium, Strain/Indicator: TA100, Metabolic Activation: Rat, liver, S-9, Aroclor 1254, Method: Direct plate incorporation inactive; negative | Test System: MOUSE LYMPHOMA, Strain/Indicator: L5178Y (TK+/TK-), Metabolic Activation: RAT, LIVER, S-9, AROCLOR 1254, Method: SUSPENSION/PLATE inactive; negative

C[n+]1c2ccccc2cc2cc(N)ccc21
inactive: [3] inactive; negative | Test System: AMES SALMONELLA TYPHIMURIUM, Strain/Indicator: TA1535, Metabolic Activation: RAT, LIVER, S-9, TETRACHLOROBIPHENYL, Method: PREINCUBATION inactive; negative
active: [4] active; positive | Test System: AMES SALMONELLA TYPHIMURIUM, Strain/Indicator: TA1537, Metabolic Activation: RAT, LIVER, S-9, TETRACHLOROBIPHENYL, Method: PREINCUBATION active; positive | Test System: AMES SALMONELLA TYPHIMURIUM, Strain/Indicator: TA1538, Metabolic Activation: NONE, Method: PREINCUBATION active; positive | Test System: AMES SALMONELLA TYPHIMURIUM, Strain/Indicator: TA1538, Metabolic Activation: RAT, LIVER, S-9, TETRACHLOROBIPHENYL, Method: PREINCUBATION active; positive | Test System: AMES SALMONELLA TYPHIMURIUM, Strain/Indicator: TA1977, Metabolic Activation: NONE, Method: PREINCUBATION active; positive | Test System: AMES SALMONELLA TYPHIMURIUM, Strain/Indicator: TA1977, Metabolic Activation: RAT, LIVER, S-9, TETRACHLOROBIPHENYL, Method: PREINCUBATION active; positive | Test System: AMES SALMONELLA TYPHIMURIUM, Strain/Indicator: TA1978, Metabolic Activation: NONE, Method: PREINCUBATION active; positive | Test System: AMES SALMONELLA TYPHIMURIUM, Strain/Indicator: TA1978, Metabolic Activation: RAT, LIVER, S-9, TETRACHLOROBIPHENYL, Method: PREINCUBATION active; positive

CC\C=C/C=C\C=C/C=C\C=C/OCCC
active: [1] active; positive

Cc1c[nH]c(=O)[nH]c1=O
inactive: Test System: CHINESE HAMSTER V-79, Strain/Indicator: V-79 (HPRT)/6-THIOGUANINE, Metabolic Activation: NONE, Method: STANDARD PLATE inactive; negative

CC(=O)N1CCC[C@H]1C(=O)N(CC(=O)O)N=O
active: Test System: AMES SALMONELLA TYPHIMURIUM, Strain/Indicator: TA100, Metabolic Activation: HOST MEDIATED, Method: STANDARD PLATE active; positive | [2] active; positive | Test System: AMES SALMONELLA TYPHIMURIUM, Strain/Indicator: TA100, Metabolic Activation: RAT, LIVER, S-9, AROCLOR 1254, Method: STANDARD PLATE active; positive | Test System: AMES SALMONELLA TYPHIMURIUM, Strain/Indicator: TA102, Metabolic Activation: NONE, Method: STANDARD PLATE active; positive | Test System: AMES SALMONELLA TYPHIMURIUM, Strain/Indicator: TA102, Metabolic Activation: RAT, LIVER, S-9, AROCLOR 1254, Method: STANDARD PLATE active; positive | Test System: AMES SALMONELLA TYPHIMURIUM, Strain/Indicator: TA1535, Metabolic Activation: NONE, Method: STANDARD PLATE active; positive | Test System: AMES SALMONELLA TYPHIMURIUM, Strain/Indicator: TA1535, Metabolic Activation: RAT, LIVER, S-9, AROCLOR 1254, Method: STANDARD PLATE active; positive | Test System: CHO/HGPRT, Strain/Indicator: CHO-K1-BH4, Metabolic Activation: NONE active; positive
inactive: Test System: AMES SALMONELLA TYPHIMURIUM, Strain/Indicator: TA98, Metabolic Activation: NONE, Method: STANDARD PLATE inactive; negative | Test System: AMES SALMONELLA TYPHIMURIUM, Strain/Indicator: TA98, Metabolic Activation: RAT, LIVER, S-9, AROCLOR 1254, Method: STANDARD PLATE inactive; negative | Test System: AMES SALMONELLA TYPHIMURIUM, Strain/Indicator: TA1537, Metabolic Activation: NONE, Method: STANDARD PLATE inactive; negative | Test System: AMES SALMONELLA TYPHIMURIUM, Strain/Indicator: TA1537, Metabolic Activation: RAT, LIVER, S-9, AROCLOR 1254, Method: STANDARD PLATE inactive; negative | Test System: AMES SALMONELLA TYPHIMURIUM, Strain/Indicator: TA1538, Metabolic Activation: NONE, Method: STANDARD PLATE inactive; negative | Test System: AMES SALMONELLA TYPHIMURIUM, Strain/Indicator: TA1538, Metabolic Activation: RAT, LIVER, S-9, AROCLOR 1254, Method: STANDARD PLATE inactive; negative
